Measured values published in article PMC6943619, “Synthesis and Pharmacological Evaluation of Hybrids Targeting Opioid and Neurokinin Receptors” (Molecules, 2019).
Where a SMILES comes first, the peptide text is derived from it. Bridges are numbered along the chain shown (N, C = ends). [ ]: non-standard residue; d: D form. Nle = CCCC[C@H](N)C(=O)O

Tests used:
[1] = target: T1, human opioid receptor MOR (Homo sapiens, UniProt P35372); experiment: Radioligand binding assay, displacement of [3H]DAMGO; conditions: displacement of [3H]DAMGO from membranes of CHO cells transfected with human MOR, 50 mM Tris/HCl pH 7.4, 0.5% BSA, peptidase inhibitors, 2 h at 25 °C, mean ± SEM, n ≥ 3
T1 construct: purchased PerkinElmer (Krakow, Poland); host or cells: CHO cell membranes
Method: A radioligand binding assay was performed to determine the opioid receptor (OR) binding affinities of the novel analogs using commercially available membranes of Chinese hamster ovary cells (CHO) transfected with human recombinant ORs. [^3H]DAMGO, [^3H]deltorphin-2, and [^3H]U-69593 were used as the radioligands for MOR, DOR, and KOR, respectively. Tyr-[D-Lys-Phe-Phe-Asp]NH2 (1) was used as a reference opioid compound. […] None of them acquired significant DOR affinity.
(§1) To determine the affinity of peptide analogs to respective receptors, competition binding experiments were performed, as described in detail elsewhere.
Commercial membranes of CHO cells stably expressing either human ORs or NK1 receptor were used. [^3H]DAMGO, [^3H]deltorphin-2, and [^3H]U-69593 were employed as the competing radioligands for MOR, DOR, and KOR, respectively, while [^3H][Sar^9, Met(O2)^11]SP was utilized for the NK1 receptor. Membranes were incubated in a 0.5 mL volume of 50 mM Tris/HCl (pH = 7.4), 0.5% bovine serum albumin (BSA), with a number of peptidase inhibitors (bacitracin, bestatin, captopril) and various concentrations of radioligands for 2 h at 25 °C. Nonspecific binding was assessed in the presence of […] naloxone for ORs or SP for NK1 receptor.
The pharmacological terminology adopted in this paper is consistent with International Union of Basic and Clinical Pharmacology (IUPHAR) recommendations. Concentration–response curves were analyzed by nonlinear regression using Graph Pad Prism 6.0 (La Jolla, CA, USA). […]. […] Concentration–response curves were fitted with the four-parameter logistic nonlinear regression model (1) Effect=baseline+Emax−baseline/1+10^logEC50−X·n where X is the agonist concentration and n is the Hill coefficient. Ligand efficacy was expressed as intrinsic activity (α) calculated as a ratio of the peptide Emax to the Emax of the standard agonist (Supplementary Materials, Figure S7). […]. All statistical analyses were performed using Graph Pad Prism 6.0 (La Jolla, CA, USA). Differences between groups were analyzed with one-way ANOVA and a post hoc multiple comparison by the Student–Newman–Keuls test. A probability level of 0.05 or smaller was used to indicate statistical significance.

human MOR = target: T2, human MOR (Homo sapiens, UniProt P35372); experiment: Calcium mobilization functional assay, agonist mode; format: cell-based; conditions: for MOR α ± SEM: efficacy (intrinsic activity), Emax relative to EM-2, mean ± SEM
T2 construct: expressed in transfected cells; host or cells: CHO cells (University of Ferrara), co-expressing Gαqi5

DOR = target: T3, DOR (Homo sapiens, UniProt P41143); experiment: as above; format: cell-based; conditions: CHO cells co-expressing DOR and GαqG66Di5, n = 5; for DOR pEC50 (CL95%): Fluo-4 AM calcium signal; for DOR α ± SEM: efficacy (intrinsic activity), Emax relative to DPDPE, mean ± SEM
T3 construct: expressed in transfected cells; host or cells: CHO cells (University of Ferrara), co-expressing GαqG66Di5

mice = experiment: Stool collection (stool mass, stool water content); format: in vivo; conditions: repeated i.p. injections 5 mg/kg, stool collected 90 min after injection on Days 1–6, compared to control group, n = 10
Method: In order to determine the influence of prolonged administration of the tested compounds on gastrointestinal passage, stool was collected for six days from mice used in the tolerance development test.
Figure 5 Effect of repeated i.p. injections of saline and the tested peptides on stool mass (A), stool water content (B), food intake (C), and water consumption (D). The data represent mean ± SEM, n = 10. Statistical significance was assessed using one-way ANOVA and a post hoc multiple comparison by the Student–Newman–Keuls test. *** p < 0.001, as compared to control.
After the i.p. injections of saline or peptides (Days 1–6), mice were placed in a separate clean cages and stool was collected for a period of 90 min. Fecal pellets were collected immediately after expulsion to avoid evaporation and placed in closed 1.5 mL tubes. Tubes were weighed to obtain the wet weight of the stool. Then, the tubes were opened and stool was dried overnight at 65 °C and reweighed to obtain the dry weight. The stool water content was calculated from the difference between the wet and dry stool weights.

human NK1 [2] = target: T4, human NK1 (Homo sapiens, UniProt P25103); experiment: Calcium mobilization assay, inhibition response experiments against SP; format: cell-based; parameters: expressed in transfected cells; host or cells: CHO cells (gift of Prof. T. Costa, ISS, Rome)
Method: Following aspiration of the loading solution and a washing step, serial dilutions of peptide stock solutions were added.
(§2) The pharmacological terminology adopted in this paper is consistent with International Union of Basic and Clinical Pharmacology (IUPHAR) recommendations. Concentration–response curves were analyzed by nonlinear regression using Graph Pad Prism 6.0 (La Jolla, CA, USA). […] Concentration–response curves were fitted with the four-parameter logistic nonlinear regression model (1) Effect=baseline+Emax−baseline/1+10^logEC50−X·n where X is the agonist concentration and n is the Hill coefficient. Ligand efficacy was expressed as intrinsic activity (α) calculated as a ratio of the peptide Emax to the Emax of the standard agonist (Supplementary Materials, Figure S7). […] All statistical analyses were performed using Graph Pad Prism 6.0 (La Jolla, CA, USA). Differences between groups were analyzed with one-way ANOVA and a post hoc multiple comparison by the Student–Newman–Keuls test. A probability level of 0.05 or smaller was used to indicate statistical significance.

human NK1 [3] = target: T4, human NK1; experiment: Radioligand binding assay, displacement of [3H][Sar9, Met(O2)11]SP; parameters: purchased PerkinElmer (Krakow, Poland); host or cells: CHO cell membranes; conditions: displacement of [3H][Sar9, Met(O2)11]SP from membranes of CHO cells transfected with human NK1 receptor; 50 mM Tris/HCl pH 7.4, 0.5% BSA, peptidase inhibitors, 2 h at 25 °C; mean ± SEM, n ≥ 3; SEM
Method: The binding assay was also used to examine the affinity of the synthesized hybrids for NK1 in commercial membranes of CHO cells stably expressing human NK1.
as §1
Commercial membranes of CHO cells stably expressing either human ORs or NK1 receptor were used. […] Membranes were incubated in a 0.5 mL volume of 50 mM Tris/HCl (pH = 7.4), 0.5% bovine serum albumin (BSA), with a number of peptidase inhibitors (bacitracin, bestatin, captopril) and various concentrations of radioligands for 2 h at 25 °C.
as §2

[4] = CHO cells co-expressing human MOR and Gαqi5, n = 5, SEM

T4 sequence (P25103 whole entry): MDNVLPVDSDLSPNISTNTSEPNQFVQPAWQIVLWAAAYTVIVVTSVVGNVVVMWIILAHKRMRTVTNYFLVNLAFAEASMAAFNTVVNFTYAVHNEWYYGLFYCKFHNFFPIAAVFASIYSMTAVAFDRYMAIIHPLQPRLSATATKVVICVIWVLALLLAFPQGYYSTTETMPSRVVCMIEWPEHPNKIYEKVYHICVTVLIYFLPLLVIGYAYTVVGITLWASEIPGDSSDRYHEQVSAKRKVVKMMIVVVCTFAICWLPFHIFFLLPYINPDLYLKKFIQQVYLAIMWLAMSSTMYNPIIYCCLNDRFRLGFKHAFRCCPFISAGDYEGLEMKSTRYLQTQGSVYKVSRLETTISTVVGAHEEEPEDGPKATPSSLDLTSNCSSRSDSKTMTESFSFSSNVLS
T3 sequence (P41143 whole entry): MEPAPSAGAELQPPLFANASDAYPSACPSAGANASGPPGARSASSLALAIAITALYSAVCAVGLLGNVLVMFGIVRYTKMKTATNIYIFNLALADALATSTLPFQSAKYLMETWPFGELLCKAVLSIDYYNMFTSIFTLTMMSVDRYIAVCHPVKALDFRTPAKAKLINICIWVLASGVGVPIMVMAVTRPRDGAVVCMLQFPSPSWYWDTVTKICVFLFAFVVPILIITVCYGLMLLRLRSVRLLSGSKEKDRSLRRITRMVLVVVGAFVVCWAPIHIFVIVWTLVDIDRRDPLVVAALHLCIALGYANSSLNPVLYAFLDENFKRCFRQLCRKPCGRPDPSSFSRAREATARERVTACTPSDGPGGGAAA
T2 sequence (P35372 whole entry): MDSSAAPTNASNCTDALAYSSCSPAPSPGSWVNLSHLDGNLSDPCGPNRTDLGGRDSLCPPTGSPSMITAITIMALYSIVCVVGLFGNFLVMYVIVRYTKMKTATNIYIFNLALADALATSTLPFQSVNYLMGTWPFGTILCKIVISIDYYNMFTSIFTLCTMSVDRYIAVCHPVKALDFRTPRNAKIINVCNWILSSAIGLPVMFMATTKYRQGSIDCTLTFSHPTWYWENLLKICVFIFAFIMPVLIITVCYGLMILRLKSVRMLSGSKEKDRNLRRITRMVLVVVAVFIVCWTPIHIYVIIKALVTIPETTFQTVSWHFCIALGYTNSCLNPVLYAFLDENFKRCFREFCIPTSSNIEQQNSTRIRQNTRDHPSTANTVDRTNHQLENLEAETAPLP
T1 sequence (P35372 whole entry): as above

Row | Structure (SMILES) | Ki [1] [nM] | EC50 (human MOR; CHO cells co-expressing human MOR and Gαqi5, Fluo-4 AM calcium signal, n = 5, read-out: MOR pEC50 (CL95%) (converted)) [nM] | lower potency at MOR as compared with 1 (human MOR; calcium mobilization, from pEC50 values) [fold] | MOR α ± SEM (human MOR; CHO cells co-expressing human MOR and Gαqi5, n = 5) | MOR α ± SEM (human MOR; [4]) | DOR pEC50 (CL95%) (DOR) | DOR α ± SEM (DOR) | stool mass (constipation) (mice) | Kb (human NK1 [2]) [nM] | Ki (human NK1 [3]) [nM]
1 | CCCC[C@H](NC(=O)[C@H](CC(C)C)NC(=O)[C@@H](Cc1c[nH]c2ccccc12)NC(=O)[C@H](Cc1ccccc1)NC(=O)[C@@H](Cc1c[nH]c2ccccc12)NC(=O)[C@H](CC(N)=O)NC(=O)[C@@H]1CC(=O)NCCCC[C@@H](NC(=O)[C@@H](N)Cc2ccc(O)cc2)C(=O)N[C@@H](Cc2ccccc2)C(=O)N[C@@H](Cc2ccccc2)C(=O)N1)C(N)=O [compound 2, Tyr-[D-Lys-Phe-Phe-Asp]-Asn-D-Trp-Phe-D-Trp-Leu-Nle-NH2] (H-Y[dK]FFDN[dW]F[dW]L[Nle]-NH2; lactam 2-5) | 5.99 ± 0.7 | 31.6 | 30 | 0.66 | 0.66 ± 0.04 | Crc incomplete | Crc incomplete | no statistically significant differences | 46.8 | 10.5 ± 0.6
2 | CSCC[C@H](NC(=O)[C@H](CC(C)C)NC(=O)CNC(=O)[C@H](Cc1ccccc1)NC(=O)[C@H](Cc1ccccc1)NC(=O)[C@H](CCC(N)=O)NC(=O)[C@@H]1CC(=O)NCCCC[C@@H](NC(=O)[C@@H](N)Cc2ccc(O)cc2)C(=O)N[C@@H](Cc2ccccc2)C(=O)N[C@@H](Cc2ccccc2)C(=O)N1)C(N)=O [compound 4, Tyr-[D-Lys-Phe-Phe-Asp]-Gln-Phe-Phe-Gly-Leu-Met-NH2] (H-Y[dK]FFDQFFGLM-NH2; lactam 2-5) | 7.98 ± 0.97 | – | – | – | 0.90 ± 0.04 | Crc incomplete | Crc incomplete | no statistically significant differences | – | 15.6 ± 1.23
